Data published in patent US20090306046A1, “METHOD OF TREATMENT OF HORMONE DEPLETION INDUCED VASOMOTOR SYMPTOMS” (N.V. ORGANON, priority 2005, published 2009).

How the values were obtained:
[1] = system: postmenopausal women; assay: Weaning from hormone therapy with mirtazapine as non-hormonal therapy for vasomotor symptoms; type: in vivo; details: 15 mg by mouth at bedtime for 6 months from the day hormone therapy is discontinued; postmenopausal women 60-65 year old; in comparison to women on hormone therapy
Experimental: Mirtazapine is used as non-hormonal therapy for vasomotor symptoms. Treatment dose is 15 mg. The length of weaning is 6 months. In this example subjects for treatment have the following characteristics: Postmenopausal women of 60-65 year old who have been on hormone therapy for the treatment of vasomotor symptoms associated with menopause for at least 2 years. They have either a need or a desire to discontinue hormone therapy. They are informed of the risks of mirtazapine. They are informed that successful use of mirtazapine for the relief of vasomotor symptoms associated with menopause has been reported in the medical literature. This method should not be used for women who have a condition or take medications that preclude the use of mirtazapine. A person treated according to this example is instructed to take 15 mg mirtazapine by mouth on the day that they are to discontinue hormone therapy. Mirtazapine is prescribed to be taken at bedtime and after all their evening rituals are done so that they can lay down right after taking mirtazapine. They are instructed to continue taking 15 mg of mirtazapine at bedtime for 6 months after which mirtazapine administration is discontinued. […] Method to measure hot flash frequency: by self rating or according to the method described by Freedman et al J. Clin Endocrin & Metabolism, Vol 80, pp 2354-2358.

[2] = system: women with breast cancer; details: results of 15 randomized controlled trials; cited from earlier work

Row | Compound | withdrawal vasomotor symptoms [1] | measures of hot flashes [2]
1 | CN1CCN2c3ncccc3Cc3ccccc3C2C1 (racemic) [Mirtazapine] | absent or strongly reduced | 
2 | Clc1cccc(Cl)c1N=C1NCCN1 [clonidine] |  | significantly improved
3 | CC(=O)O[C@]1(C(C)=O)CC[C@H]2[C@@H]3C=C(C)C4=CC(=O)CC[C@]4(C)[C@H]3CC[C@@]21C [megestrol acetate] |  | significantly improved
4 | COc1ccc(C(CN(C)C)C2(O)CCCCC2)cc1 (stereo not shown) [venlafaxine] |  | significantly improved
